# Data reported in patent publication US20220275534A1, “Peptide Library Production Method” (The University of Tokyo, priority 2018, published 2022).
# Non-standard residues stand in square brackets, D forms with d. No end group written: not given here. *: point of attachment. prenyl = prenyl group added to Trp by KgpF, CC(C)=CC*
# How the values were obtained:
# KgpF [1] = conditions: literature finding; cited from earlier work
# KgpF [2] = assay: Prenylation of artificial cyclic peptides with 160 μM KgpF at 0° C., 20 hours (Conditions 13/14 and 19/20; Examples 10, 14, 19; Tables 6 and 18); type: biochemical, Microcystis aeruginosa; set-up: key: 5: strong intensity; 4: medium intensity; 3: weak intensity; 2: very weak intensity; 1: no peak; N/A: not observed; conditions: Table 18; Conditions 13 and 14 (160 μM KgpF, 0° C., 20 hours); NSGGVS added to C terminal
# Protocol: The artificial cyclic peptides Clone-M1 to M9 shown below were obtained by translation and synthesis in the artificial translation system (Conditions 13) developed by the present inventors. The peptides thus obtained were then reacted with 160 μM KgpF in the system shown in (Conditions 14) at 0° C. for 20 hours.
# (Conditions 13) • FIT system: v8s/v11.0 • 19aa-Met: 0.5 mM • ClAc-D-Tyr-tRNA^fMetCUA: 90 μM • Reaction: 37° C., 60 min. • Scale: 2.5 μL scale
# After the above reaction was performed, the reaction product was incubated at 25° C. for 12 minutes.
# Then, a cyclization reaction was performed under the following conditions. • Translated mixture amount: 2.5 μL (mixture obtained by the above reaction) • EDTA: 18 mM • Reaction: 42° C., 60 min. • Scale: 2.75 μL scale
# (Conditions 14) • Translated mixture amount: 2.75 μL (mixture obtained under (Conditions 13)) • KOH: 6.0 mM • Mg(OAc)2: 9.0 mM • Tris-HCl (pH 8.3) 15 mM • KgpF: 160 μM • DMAPP: 2 mM • Reaction: 0° C., 20 hours
# The artificial cyclic peptides shown below were obtained by translation and synthesis in the artificial translation system (Conditions 19) developed by the present inventors. The peptides thus obtained were then reacted with 160 μM KgpF in the system shown in (Conditions 20) at 0° C. for 20 hours.
# (Conditions 19) • FIT system: v8s/11.0 • 19aa-Met: 0.5 mM • ClAc-D-Tyr-tRNA^fMetCUA: 90 μM • Reaction: 37° C., 60 min. • Scale: 2.5 μL scale
# (Conditions 20) • Translated mixture amount: 2.75 μL (mixture obtained under (Conditions 19)) • KOH: 6.0 mM • Mg(OAc)2: 9.0 mM • Tris-HCl (pH 8.3): 15 mM • KgpF: 160 μM • DMAPP: 2 mM • Reaction: 0° C., 20 hours
# Then, the compound library was provided for a step of screening cyclic peptides having interaction with an enzyme MetAP1 (Human) as in the scheme shown in FIG. 8. It has been confirmed that with regards to some of the peptides shown in FIG. 10, peptides having these sequences are modified by prenylation as shown in Table 18 by bringing them into contact with KgpF under conditions shown in (Conditions 13) and (Conditions 14).
# Target sequence in this assay (as listed by the source): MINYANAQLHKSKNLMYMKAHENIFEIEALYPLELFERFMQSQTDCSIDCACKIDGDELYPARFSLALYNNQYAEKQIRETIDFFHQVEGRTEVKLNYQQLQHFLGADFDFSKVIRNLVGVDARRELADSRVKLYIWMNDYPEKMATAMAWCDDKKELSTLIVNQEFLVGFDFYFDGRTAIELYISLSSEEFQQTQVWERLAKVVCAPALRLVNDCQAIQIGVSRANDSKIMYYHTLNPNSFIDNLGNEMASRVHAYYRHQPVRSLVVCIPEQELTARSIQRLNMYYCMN
# MetAP1 = MetAP1 (Homo sapiens, UniProt P53582); assay: MetAP1 inhibition test of prenylated cyclic peptide (probe fluorescence); type: biochemical; conditions: prenylated peptide at 1 μM, 5 μM or 10 μM; cofactor Mn2+ or Co2+ 100 μM; MetAP1 1 μM; 37° C., 120 min (FIG. 13)
# Protocol: A MetAP1 inhibition test was performed in vitro using the prenylated Met2, Met3a-L, and Met3-1 at concentrations of 1 μM, 5 μM or 10 μM in the presence of a MetAP1 cofactor Mn^2+ or Co^2+. In the test, enzymatic activity was measured by detecting probe fluorescence, that is, fluorescence emitted depending on the enzymatic activity of MetAP1.
# (Conditions) • Scale: 20 μL • Cyclic peptide: 1, 5, 10 μM • MnCl2 or CoCl2: 100 μM • MetAP1 enzymatic activity probe: 1 μM • MetAP1: 1 μM • Tris (pH7.6): 25 mM • NaCl: 75 mM • Reaction: 37° C., 120 min.
# After the reaction, the fluorescence intensity of the probe was measured using a plate reader.
Compound,prenylation by KgpF (KgpF [1]),"Peak intensity, The number of prenyl groups added 0 (KgpF [2])","Peak intensity, The number of prenyl groups added 1 (KgpF [2])",inhibition of the enzymatic activity of MetAP1 (MetAP1)
O=C(N[C@@H](Cc1c[nH]c2ccccc12)C(=O)O)OCC1c2ccccc2-c2ccccc21 [Fmoc-Trp-OH],low efficiency,,,
Cyclic [WLNGDNNWSTP]: main-chain cyclized peptide of 11 residues formed from precursor peptide KgpE; natural substrate giving Kawaguchipeptin A (SEQ ID NO: 386) (main-chain cyclized),prenylates two Trp residues,,,
Met3: prenylated cyclic peptide identified by screening with MetAP1 as a target (Ac-[dY]KRKAW(prenyl)ICQTAVYCNSGGVS; thioether (positions not given here); not fully specified (C-terminus)),,2,5,inhibit the enzymatic activity of MetAP1
"Met3a-L: cyclic peptide SEQ ID NO: 362 from MetAP1 screening, Fmoc solid-phase synthesis, prenylated with KgpF (YKRKAWLC; also: cyclic, ring not given here, prenylated with KgpF)",,,,inhibit the enzymatic activity of MetAP1
